Laboratory results reported in PubChem BioAssay AID1259407 (Chemical Carcinogenesis Research Information System (CCRIS), 2018).
Calls of active or inactive are those of the source. How the calls were made is not given here.

Test system: CCRIS mutagenicity, Ames/micronucleus/aberration tests
Assay: CCRIS mutagenicity studies
Settings: Test System: AMES SALMONELLA TYPHIMURIUM
[1] = Strain/Indicator: TA98, Metabolic Activation: NONE, Method: PREINCUBATION
[2] = Strain/Indicator: TA100, Metabolic Activation: NONE, Method: PREINCUBATION
[3] = Strain/Indicator: TA100, Metabolic Activation: NONE, Method: STANDARD PLATE
[4] = Strain/Indicator: TA98, Metabolic Activation: RAT, LIVER, S-9, AROCLOR 1254, Method: PREINCUBATION
[5] = Strain/Indicator: TA100, Metabolic Activation: RAT, LIVER, S-9, AROCLOR 1254, Method: PREINCUBATION

With `S=c1[nH]c2ccccc2[nH]1` the mutagenic call (Strain/Indicator: TA97, Metabolic Activation: HAMSTER, LIVER, S-9, AROCLOR 1254 (10%), Method: PREINCUBATION) was “inactive; negative”, the mutagenic call (Strain/Indicator: TA97, Metabolic Activation: HAMSTER, LIVER, S-9, AROCLOR 1254 (30%), Method: PREINCUBATION) was “inactive; negative” and the mutagenic call (Strain/Indicator: TA97, Metabolic Activation: NONE, Method: PREINCUBATION) was “inactive; negative”. For the same compound, the mutagenic call (Strain/Indicator: TA97, Metabolic Activation: RAT, LIVER, S-9, AROCLOR 1254 (10%), Method: PREINCUBATION) was “inactive; negative”, the mutagenic call (Strain/Indicator: TA97, Metabolic Activation: RAT, LIVER, S-9, AROCLOR 1254 (30%), Method: PREINCUBATION) was “inactive; negative” and the mutagenic call (Strain/Indicator: TA98, Metabolic Activation: HAMSTER, LIVER, S-9, AROCLOR 1254 (10%), Method: PREINCUBATION) was “inactive; negative”. The mutagenic call (Strain/Indicator: TA98, Metabolic Activation: HAMSTER, LIVER, S-9, AROCLOR 1254 (30%), Method: PREINCUBATION) was “inactive; negative”, the mutagenic call [1] was “inactive; negative” and the mutagenic call (Strain/Indicator: TA98, Metabolic Activation: RAT, LIVER, S-9, AROCLOR 1254 (10%), Method: PREINCUBATION) was “inactive; negative”. For the same compound, the mutagenic call (Strain/Indicator: TA98, Metabolic Activation: RAT, LIVER, S-9, AROCLOR 1254 (30%), Method: PREINCUBATION) was “inactive; negative”, the mutagenic call (Strain/Indicator: TA100, Metabolic Activation: HAMSTER, LIVER, S-9, AROCLOR 1254 (10%), Method: PREINCUBATION) was “inactive; negative” and the mutagenic call (Strain/Indicator: TA100, Metabolic Activation: HAMSTER, LIVER, S-9, AROCLOR 1254 (30%), Method: PREINCUBATION) was “inactive; negative”. The mutagenic call [2] was “inactive; negative”, the mutagenic call (Strain/Indicator: TA100, Metabolic Activation: RAT, LIVER, S-9, AROCLOR 1254 (10%), Method: PREINCUBATION) was “inactive; negative” and the mutagenic call (Strain/Indicator: TA100, Metabolic Activation: RAT, LIVER, S-9, AROCLOR 1254 (30%), Method: PREINCUBATION) was “inactive; negative”. The mutagenic call (Strain/Indicator: TA1535, Metabolic Activation: HAMSTER, LIVER, S-9, AROCLOR 1254 (10 OR 30%), Method: PREINCUBATION) was “inactive; negative”, the mutagenic call (Strain/Indicator: TA1535, Metabolic Activation: NONE, Method: PREINCUBATION) was “inactive; negative” and the mutagenic call (Strain/Indicator: TA1535, Metabolic Activation: RAT, LIVER, S-9, AROCLOR 1254 (10 OR 30%), Method: PREINCUBATION) was “inactive; negative”.

For `Cc1ccc(S(=O)(=O)N2C3c4ccccc4-c4ccccc4C32)cc1` (centres undefined), the mutagenic call [3] was “active; positive”.

With `CC(=O)Nc1ccc(Oc2ccc([N+](=O)[O-])cc2)cc1` the mutagenic call (Strain/Indicator: TA98(1,8-DNP6), Metabolic Activation: NONE, Method: PREINCUBATION) was “inactive; negative”, the mutagenic call (Strain/Indicator: TA98(1,8-DNP6), Metabolic Activation: RAT, LIVER, S-9, AROCLOR 1254, Method: PREINCUBATION) was “inactive; negative” and the mutagenic call (Strain/Indicator: TA98(NR), Metabolic Activation: NONE, Method: PREINCUBATION) was “inactive; negative”. The mutagenic call (Strain/Indicator: TA98(NR), Metabolic Activation: RAT, LIVER, S-9, AROCLOR 1254, Method: PREINCUBATION) was “inactive; negative”, the mutagenic call [1] was “active; positive” and the mutagenic call [4] was “active; positive”. The mutagenic call (Strain/Indicator: TA100(NR), Metabolic Activation: NONE, Method: PREINCUBATION) was “inactive; negative”, the mutagenic call (Strain/Indicator: TA100(NR), Metabolic Activation: RAT, LIVER, S-9, AROCLOR 1254, Method: PREINCUBATION) was “active; positive” and the mutagenic call [2] was “active; positive”. The mutagenic call [5] was “active; positive”.

With `CCCCc1c(N)ccc2ccccc12` the mutagenic call (Strain/Indicator: TA98, Metabolic Activation: NONE, Method: STANDARD PLATE) was “inactive; negative”, the mutagenic call (Strain/Indicator: TA98, Metabolic Activation: RAT LIVER S-9, AROCLOR, Method: STANDARD PLATE) was “active; positive” and the mutagenic call [3] was “inactive; negative”. For the same compound, the mutagenic call (Strain/Indicator: TA100, Metabolic Activation: RAT LIVER S-9, AROCLOR, Method: STANDARD PLATE) was “active; positive”.

In the case of `c1ccc2c(c1)-c1ccc3ccc4cccc5cc-2c1c3c45`, the mutagenic call [3] is reported as “inactive; negative”, the mutagenic call [5] is reported as “active; positive” and the mutagenic call (Strain/Indicator: TA100, Metabolic Activation: RAT, LIVER, S-9, AROCLOR 1254, Method: STANDARD PLATE) is reported as “active; positive”. The mutagenic call (Strain/Indicator: TA1537, Metabolic Activation: RAT, LIVER, S-9, AROCLOR 1254, Method: STANDARD PLATE) was “active; positive” and the mutagenic call (Strain/Indicator: TA1538, Metabolic Activation: RAT, LIVER, S-9, AROCLOR 1254, Method: STANDARD PLATE) was “active; positive”.

For `Cn1c(N)nc2cc(Cl)ccc21`, the mutagenic call [4] was “active; positive” and the mutagenic call [5] was “active; positive”.

With `Cc1c2ccccc2c(CCl)c2ccc3ccccc3c12` the mutagenic call [3] was “active; positive” and the mutagenic call (Strain/Indicator: TA1537, Metabolic Activation: NONE, Method: STANDARD PLATE) was “active; positive”.

In the case of `CNc1nc2c3cccnc3ccc2n1C`, the mutagenic call [4] is reported as “active; positive” and the mutagenic call [5] is reported as “active; positive”.
